Laboratory results taken from publication PMC11671526, “β-caryophyllene sensitizes hepatocellular carcinoma cells to chemotherapeutics and inhibits cell malignancy through targeting MAPK signaling pathway” (Frontiers in Pharmacology, 2024).

Tested on: HepG2 cells
Experiment: RNA-seq transcriptome analysis of differentially expressed genes
Assay type: cell-based, human
Conditions: BCP vs control HepG2, RNA-seq
Protocol: The quality and concentration of RNA were examined by MOPS RNA electrophoresis and Eppendorf BioSpectrometer. The transcriptome analysis was performed by BGI-Wuhan China. The RNA-seq dataset of this study is accessible in the Gene Expression Omnibus (GEO) with an access number of GSE276099. The sequence library for each sample was prepared using the BGISEQ-500 platform with a 50-bp single-end (SE50) format. […]2.2.1) was used to align the clean reads to the reference genome and alignment of the clean reads to the reference genes was carried out using Bowtie2 (v2.4.5) ([Langmead and Salzberg, 2012]; [Kim et al., 2015]). Gene expression levels were calculated by RSEM (v1.3.1) ([Li and Dewey, 2011]). Analysis of differential gene expression was performed using edgeR in the Bioconductor software package ([Robinson et al., 2010]). Using a standard protocol, the RNA samples were also examined by reverse transcription and quantitative polymerase chain reaction (RT-qPCR). In brief, for reverse transcription, total RNA (1 μg) and gDNA wiper Mix were incubated at 42°C for 2 min. The samples were immediately incubated with a master mix containing 10 pmol/μL of poly (dT) primers at 37°C for 15 min and 85°C for 5 s. To detect the expression of specific genes by qPCR analysis, gene-specific primers (shown in Supplementary Table S1) were mixed with the ChamQ Universal SYBER qPCR Master Mix and the reaction was conducted using the Roche Lightcycler 480. The GAPDH value was used to normalize the results of each gene. The RNA-seq data of BCP-treated HepG2 cells were screened for DEGs. Gene symbols were turned into Enterz ID using the org.Hs.eg.db Bio-conductor R package. The cluster profiler (v4.6.2) package was used to perform the Kyoto Encyclopedia of Genes and Genomes (KEGG) and Gene Ontology (GO) enrichment analyses ([Wu et al., 2021]). Following the Transcript per million (TPM) data of the dataset, the line chart, and heatmap were plotted using ggplot2 and pheatmap R packages, respectively.

`C=C1CC/C=C(\C)CC[C@@H]2[C@@H]1CC2(C)C` [BCP, β-caryophyllene] was tested, and the ABCA4 change was “Up”, the “ABCA4 logFC” value was 1.08 and the ABHD16B change was “Down”. The “ABHD16B logFC” value was -0.7624, the ACCS change was “Up” and the “ACCS logFC” value was 0.7756. For the same molecule, the ADAT3 change was “Down”, the “ADAT3 logFC” value was -0.6489 and the ADGRE1 change was “Down”. For the same molecule, the “ADGRE1 logFC” value was -1.049, the ADORA1 change was “Down” and the “ADORA1 logFC” value was -0.951. For the same molecule, the ADORA2A change was “Down”, the “ADORA2A logFC” value was -0.7747 and the ADRA2C change was “Down”. The “ADRA2C logFC” value was -0.8257, the AGT change was “Up” and the “AGT logFC” value was 0.6624. The AKR1C1 change was “Down”, the “AKR1C1 logFC” value was -0.9841 and the ALOX12B change was “Down”. For the same molecule, the “ALOX12B logFC” value was -0.7891, the ALOXE3 change was “Down” and the “ALOXE3 logFC” value was -1.101. The ANK1 change was “Down”, the “ANK1 logFC” value was -0.6258 and the ANK2 change was “Up”. For the same molecule, the “ANK2 logFC” value was 0.6135, the ANKRD63 change was “Down” and the “ANKRD63 logFC” value was -1.109. For the same molecule, the ANO9 change was “Up”, the “ANO9 logFC” value was 0.6598 and the AOX1 change was “Down”. For the same molecule, the “AOX1 logFC” value was -0.7887, the ARHGAP25 change was “Down” and the “ARHGAP25 logFC” value was -0.9496. The ARTN change was “Down”, the “ARTN logFC” value was -0.6893 and the B3GNT4 change was “Down”. The “B3GNT4 logFC” value was -0.8549, the BEST1 change was “Up” and the “BEST1 logFC” value was 0.7297. The BOC change was “Down”, the “BOC logFC” value was -1.001 and the BOLA2B change was “Down”. The “BOLA2B logFC” value was -1.579, the BORCS8-MEF2B change was “Up” and the “BORCS8-MEF2B logFC” value was 0.7383. The C4orf50 change was “Down”, the “C4orf50 logFC” value was -0.84 and the C7orf31 change was “Up”. For the same molecule, the “C7orf31 logFC” value was 0.8499, the C14orf132 change was “Down” and the “C14orf132 logFC” value was -0.9885. For the same molecule, the C15orf62 change was “Down”, the “C15orf62 logFC” value was -0.8151 and the CACNA1D change was “Up”. The “CACNA1D logFC” value was 0.899, the CACNA1E change was “Down” and the “CACNA1E logFC” value was -0.8241. The CAMK2N2 change was “Down”, the “CAMK2N2 logFC” value was -0.8129 and the CARMIL2 change was “Down”. The “CARMIL2 logFC” value was -0.818, the CDC25C change was “Up” and the “CDC25C logFC” value was 0.5857. For the same molecule, the CENPE change was “Up”, the “CENPE logFC” value was 0.6854 and the CERS4 change was “Down”. The “CERS4 logFC” value was -0.7861, the CHST6 change was “Down” and the “CHST6 logFC” value was -0.6638. For the same molecule, the CILP2 change was “Down”, the “CILP2 logFC” value was -0.9152 and the CLEC7A change was “Down”. For the same molecule, the “CLEC7A logFC” value was -1.627, the CLGN change was “Up” and the “CLGN logFC” value was 0.5838. The COL9A2 change was “Up”, the “COL9A2 logFC” value was 0.6974 and the CPAMD8 change was “Up”. For the same molecule, the “CPAMD8 logFC” value was 0.9195, the CRYBG1 change was “Down” and the “CRYBG1 logFC” value was -0.6404. For the same molecule, the CSF1R change was “Up”, the “CSF1R logFC” value was 1.132 and the CTNNBIP1 change was “Up”. For the same molecule, the “CTNNBIP1 logFC” value was 0.608, the CYP24A1 change was “Up” and the “CYP24A1 logFC” value was 0.7733. For the same molecule, the CYP39A1 change was “Down”, the “CYP39A1 logFC” value was -0.966 and the D2HGDH change was “Up”. The “D2HGDH logFC” value was 0.7244, the DEPTOR change was “Down” and the “DEPTOR logFC” value was -0.8053. The DOK7 change was “Up”, the “DOK7 logFC” value was 0.6123 and the DPF1 change was “Down”. The “DPF1 logFC” value was -0.7852, the DUSP18 change was “Down” and the “DUSP18 logFC” value was -1.0326. For the same molecule, the ELOVL6 change was “Down”, the “ELOVL6 logFC” value was -0.6915 and the EN2 change was “Down”. The “EN2 logFC” value was -0.8276, the ENPP1 change was “Up” and the “ENPP1 logFC” value was 0.6168. For the same molecule, the EPHA7 change was “Up”, the “EPHA7 logFC” value was 0.6078 and the ERVV-2 change was “Up”. The “ERVV-2 logFC” value was 0.6706, the FAAH2 change was “Up” and the “FAAH2 logFC” value was 0.6861. The FAM72A change was “Up”, the “FAM72A logFC” value was 0.7318 and the FAM167B change was “Down”. For the same molecule, the “FAM167B logFC” value was -1.112, the FAM222A change was “Down” and the “FAM222A logFC” value was -0.6769. For the same molecule, the FAR2 change was “Down”, the “FAR2 logFC” value was -0.7201 and the FBXL22 change was “Down”. For the same molecule, the “FBXL22 logFC” value was -1.204, the FDXACB1 change was “Down” and the “FDXACB1 logFC” value was -1.018. The FES change was “Down”, the “FES logFC” value was -1.129 and the FGF11 change was “Down”. For the same molecule, the “FGF11 logFC” value was -0.6148, the FGF12 change was “Up” and the “FGF12 logFC” value was 0.873. For the same molecule, the FHIT change was “Up”, the “FHIT logFC” value was 0.955 and the FICD change was “Up”. The “FICD logFC” value was 0.637, the FUT3 change was “Down” and the “FUT3 logFC” value was -0.9413. The GBP4 change was “Down”, the “GBP4 logFC” value was -1.639 and the GGT2 change was “Up”. The “GGT2 logFC” value was 0.9035, the GJD3 change was “Down” and the “GJD3 logFC” value was -0.6605. For the same molecule, the GPD1 change was “Up”, the “GPD1 logFC” value was 0.9345 and the GPR3 change was “Down”. The “GPR3 logFC” value was -1.067, the GPR158 change was “Up” and the “GPR158 logFC” value was 0.961. The GRIP2 change was “Down”, the “GRIP2 logFC” value was -0.6933 and the H3C6 change was “Down”. The “H3C6 logFC” value was -0.6656, the H4C8 change was “Down” and the “H4C8 logFC” value was -0.9939. For the same molecule, the HBA1 change was “Down”, the “HBA1 logFC” value was -0.7699 and the HPD change was “Up”. The “HPD logFC” value was 0.6168, the HPGD change was “Down” and the “HPGD logFC” value was -0.5852. The IFIT1 change was “Down”, the “IFIT1 logFC” value was -0.7944 and the IFIT2 change was “Down”. The “IFIT2 logFC” value was -0.7214, the IL7R change was “Down” and the “IL7R logFC” value was -0.8033. The IMMP2L change was “Up”, the “IMMP2L logFC” value was 0.6542 and the IQCG change was “Up”. For the same molecule, the “IQCG logFC” value was 0.9618, the ISYNA1 change was “Down” and the “ISYNA1 logFC” value was -1.197. For the same molecule, the JMJD7-PLA2G4B change was “Up”, the “JMJD7-PLA2G4B logFC” value was 0.8598 and the KCP change was “Up”. The “KCP logFC” value was 1.479, the KHDC1 change was “Down” and the “KHDC1 logFC” value was -0.6694. The KRT34 change was “Up”, the “KRT34 logFC” value was 0.7278 and the LOC100133315 change was “Up”. For the same molecule, the “LOC100133315 logFC” value was 0.7126, the LOC102724200 change was “Up” and the “LOC102724200 logFC” value was 1.529. The LOC102724788 change was “Up”, the “LOC102724788 logFC” value was 0.903 and the LOC107984638 change was “Down”. For the same molecule, the “LOC107984638 logFC” value was -1.075, the LRRC56 change was “Down” and the “LRRC56 logFC” value was -0.591. The LRRK2 change was “Down”, the “LRRK2 logFC” value was -0.8118 and the MAST4 change was “Down”. The “MAST4 logFC” value was -0.6435, the MCTP2 change was “Up” and the “MCTP2 logFC” value was 0.7514. The MORN4 change was “Up”, the “MORN4 logFC” value was 0.6216 and the MVB12B change was “Up”. For the same molecule, the “MVB12B logFC” value was 0.6743, the MXRA8 change was “Down” and the “MXRA8 logFC” value was -0.6329. For the same molecule, the MYB change was “Down”, the “MYB logFC” value was -0.6747 and the MYH14 change was “Up”. For the same molecule, the “MYH14 logFC” value was 0.8331, the MYPN change was “Up” and the “MYPN logFC” value was 0.6564. For the same molecule, the NCF2 change was “Down”, the “NCF2 logFC” value was -1.214 and the NEBL change was “Up”. The “NEBL logFC” value was 0.5931, the NECAB2 change was “Up” and the “NECAB2 logFC” value was 0.9799. For the same molecule, the NEIL3 change was “Up”, the “NEIL3 logFC” value was 0.6475 and the NEK11 change was “Up”. For the same molecule, the “NEK11 logFC” value was 0.7755, the NFE2 change was “Down” and the “NFE2 logFC” value was -0.6303. For the same molecule, the NPHS1 change was “Up”, the “NPHS1 logFC” value was 1.189 and the NPIPA3 change was “Down”. The “NPIPA3 logFC” value was -0.8968, the NPY4R change was “Up” and the “NPY4R logFC” value was 0.7533. For the same molecule, the NR5A2 change was “Down”, the “NR5A2 logFC” value was -0.6198 and the NR6A1 change was “Down”. The “NR6A1 logFC” value was -0.7194, the NYAP1 change was “Down” and the “NYAP1 logFC” value was -0.7161.
